According to the CheMixHub drug solubility set:

Assay: xn = mol fraction of the nth substance listed, in the solute-free solvent

COC(=O)C1=C(C)NC(C)=C(C(=O)OCC(C)C)C1c1ccccc1[N+](=O)[O-] (stereo unspecified) + CC(C)O + O
solubility (g/100 g solution)
Settings	278.15 K	283.15 K	288.15 K	293.15 K	298.15 K	303.15 K	308.15 K	313.15 K	318.15 K
x2 = 0.06974	0.651	0.819	1.02	1.25	1.49	1.76	2.04	2.35	2.71
x2 = 0.1666	1.78	2.22	2.67	3.18	3.8	4.49	5.28	6.22	7.31
x2 = 0.3103	2.4	2.84	3.46	4	4.73	5.54	6.37	7.36	8.44
x2 = 0.5454	3.18	3.82	4.5	5.27	6.2	7.21	8.34	9.68	11.1

O=C(CC(=O)c1ccccc1)c1ccccc1 + CC(C)O + O
solubility (g/100 g solution)
Settings	278.15 K	283.15 K	288.15 K	293.15 K	298.15 K	303.15 K	308.15 K	313.15 K	318.15 K
x2 = 0.2	0.0987	0.114	0.14	0.185	0.222	0.277	0.338	0.422	0.528
x2 = 0.4	0.264	0.353	0.459	0.618	0.711	1.05	1.26	1.73	4.77
x2 = 0.6	0.61	0.936	1.23	1.34	1.47	1.91	2.36	3.27	4.94
x2 = 0.8	0.977	1.43	1.48	2.1	2.32	2.93	3.69	4.5	7.02

O=c1[nH]cc(F)c(=O)[nH]1 + CCCO + C1CCOC1
solubility (g/100 g solution)
Settings	283.15 K	288.15 K	293.15 K	298.15 K	303.15 K	308.15 K	313.15 K	318.15 K	323.15 K
x2 = 0.2307	0.148	0.169	0.195	0.226	0.263	0.313	0.373	0.452	0.536
x2 = 0.4444	0.17	0.196	0.225	0.258	0.299	0.351	0.42	0.496	0.588
x2 = 0.6428	0.201	0.229	0.258	0.297	0.34	0.397	0.467	0.543	0.625
x2 = 0.8276	0.228	0.263	0.298	0.34	0.393	0.457	0.539	0.651	0.763

COC(=O)C1=C(C)NC(C)=C(C(=O)OCC(C)C)C1c1ccccc1[N+](=O)[O-] (stereo unspecified) + CCCO + O
solubility (g/100 g solution)
Settings	278.15 K	283.15 K	288.15 K	293.15 K	298.15 K	303.15 K	308.15 K	313.15 K	318.15 K
x2 = 0.03225	0.131	0.174	0.219	0.268	0.346	0.422	0.526	0.638	0.78
x2 = 0.06974	0.532	0.647	0.806	0.96	1.16	1.37	1.62	1.92	2.23
x2 = 0.1139	0.997	1.25	1.49	1.81	2.21	2.6	3.12	3.63	4.27
x2 = 0.1666	1.41	1.75	2.12	2.56	3.1	3.6	4.37	5.07	5.97
x2 = 0.2307	1.69	2.05	2.52	3.08	3.7	4.42	5.22	6.16	7.24
x2 = 0.3103	2.02	2.49	2.99	3.59	4.3	5.12	6.03	7.01	8.15
x2 = 0.4117	2.29	2.82	3.37	4.11	4.82	5.73	6.73	7.81	9.08
x2 = 0.5454	2.47	3.06	3.68	4.45	5.28	6.23	7.23	8.39	9.79
x2 = 0.7297	2.47	3.01	3.69	4.38	5.22	6.28	7.42	8.7	10

O=[N+]([O-])c1cc[nH]n1 + CCCO + O
solubility (g/100 g solution)
Settings	283.15 K	288.15 K	293.15 K	298.15 K	303.15 K	308.15 K	313.15 K	318.15 K	323.15 K
x2 = 0.03225	0.274	0.349	0.477	0.616	0.783	1.04	1.33	1.86	2.35
x2 = 0.06974	0.307	0.377	0.489	–	0.772	1.01	1.29	1.68	2.18
x2 = 0.1139	0.626	0.769	0.945	1.16	1.45	1.78	2.31	2.95	3.78
x2 = 0.1666	0.964	1.19	1.43	1.76	2.13	2.64	3.29	4.2	5.32
x2 = 0.2307	1.35	1.63	1.97	2.36	2.87	3.48	4.23	5.37	6.75
x2 = 0.3103	1.73	2.03	2.41	2.87	3.44	4.09	4.96	6.34	7.73
x2 = 0.4117	2.08	2.44	2.82	3.32	3.87	4.69	5.64	6.61	8.31
x2 = 0.5454	2.49	2.85	3.25	3.76	4.35	5.08	6.07	7.31	8.56
x2 = 0.7297	2.69	3.11	3.53	4	4.54	5.23	6.03	7.19	8.45

Cc1ccc(Nc2nccc(N(C)c3ccc4c(C)n(C)nc4c3)n2)cc1S(N)(=O)=O + CCO + CC#N
solubility (g/100 g solution)
Settings	288.15 K	293.15 K	298.15 K	303.15 K	308.15 K	313.15 K	318.15 K	323.15 K	328.15 K
x2 = 0.1822	0.0124	0.029	0.0444	0.063	0.0838	0.104	0.125	0.149	0.177
x2 = 0.3727	0.026	0.0514	0.0739	0.101	0.129	0.157	0.187	0.22	0.258
x2 = 0.572	0.0528	0.0704	0.0887	0.11	0.133	0.16	0.189	0.221	0.256
x2 = 0.7809	0.0195	0.035	0.0514	0.0677	0.086	0.104	0.123	0.145	0.17

CC1(C)SC2C(NC(=O)C(NC(=O)N3CCNC3=O)c3ccccc3)C(=O)N2C1C(=O)O (stereo unspecified) + CCO + CC(C)O
solubility (g/100 g solution)
Settings	278.15 K	283.15 K	288.15 K	293.15 K	298.15 K	303.15 K	308.15 K	313.15 K	318.15 K	323.15 K
x2 = 0.101	0.0833	0.0951	0.122	0.14	0.179	0.215	0.264	0.329	0.405	0.525
x2 = 0.2	0.0893	0.101	0.129	0.153	0.191	0.238	0.294	0.368	0.449	0.59
x2 = 0.301	0.119	0.135	0.164	0.208	0.248	0.287	0.369	0.426	0.528	0.687
x2 = 0.401	0.13	0.155	0.19	0.238	0.281	0.339	0.415	0.511	0.63	0.773
x2 = 0.5	0.154	0.182	0.223	0.279	0.345	0.399	0.484	0.636	0.78	0.991
x2 = 0.602	0.197	0.227	0.275	0.345	0.43	0.537	0.646	0.789	0.974	1.25
x2 = 0.703	0.268	0.302	0.368	0.464	0.539	0.677	0.857	1.05	1.29	1.61
x2 = 0.8	0.37	0.45	0.53	0.623	0.718	0.882	1.15	1.38	1.67	2.05
x2 = 0.9	0.54	0.618	0.748	0.927	1.11	1.35	1.69	2.01	2.39	2.92

CC(=O)Nc1ccc(OC(=O)c2ccccc2OC(C)=O)cc1 + CCO + O
solubility (g/100 g solution)
Settings	278.15 K	283.15 K	288.15 K	293.15 K	298.15 K	303.15 K	308.15 K	313.15 K	318.15 K
x2 = 0.04165	0.00299	0.00439	0.00634	0.00913	0.0133	0.0185	0.0258	0.0351	0.0474
x2 = 0.08908	0.00839	0.0122	0.0171	0.0242	0.0339	0.0464	0.0629	0.0839	0.112
x2 = 0.1436	0.0202	0.0284	0.0401	0.0539	0.0744	0.0995	0.133	0.175	0.232
x2 = 0.2068	0.037	0.0513	0.0699	0.0951	0.127	0.166	0.221	0.283	0.366
x2 = 0.2812	0.0604	0.0826	0.111	0.146	0.19	0.252	0.322	0.409	0.514
x2 = 0.3698	0.082	0.109	0.148	0.197	0.255	0.33	0.424	0.542	0.69
x2 = 0.4772	0.108	0.144	0.193	0.254	0.327	0.418	0.536	0.684	0.863
x2 = 0.6101	0.134	0.178	0.236	0.306	0.396	0.513	0.661	0.829	1.04
x2 = 0.7788	0.157	0.206	0.273	0.356	0.458	0.586	0.741	0.936	1.18
